From US20190233836A1, “MEANS AND METHODS TO INCREASE COUMARIN PRODUCTION” (VIB VZW, priority 2016, published 2019)

Test system: COSY
Test: Enzymatic activity of COSY: in vitro assay combined with tobacco 4CL and CoA
Format: biochemical, Arabidopsis thaliana
Conditions: 4CL and COSY added simultaneously, CoA present; purified COSY expressed in E. coli
Excerpt: FIG. 7: Enzymatic activity of COSY. COSY and 4CL were supplemented with either 2-hydroxy-p-coumaric acid (2OHpCA), 6-hydroxycaffeic acid (6OHCA) or 6-hydroxyferulic acid (6OHFA). Umbelliferone, esculetin and scopoletin were formed, respectively, only in the presence of CoA and the enzymes 4CL and COSY. The y-axis represents the normalized abundance, error bars show the standard deviation (n=4).
Although the idea of spontaneous isomerization and lactonisation in the biosynthesis of coumarins is now widely accepted in literature (Matsumoto S. et al., 2012; Yang et al., 2015) our cosy mutant data in Example 1 clearly contradict this. When we took a closer examination at the lactonisation reaction of the coumarin core structures we investigated the possible resemblance to an esterification-type reaction mediated by BAHD acyltransferases. BAHD family members utilize activated CoA-thioesters as acyl-donors and an alcohol or amine as the acyl acceptor to form an ester or amide, respectively. We therefore hypothesized that COUMARIN SYNTHASE (COSY) could be a BAHD acyltransferase responsible for the isomerization and lactonization of ortho-hydroxy-cinnamoyl CoA thioesters into coumarins. To verify the catalytic activity of COSY in vitro, COSY was expressed in Escherichia coli and the corresponding COSY protein purified. Potential substrates were chosen based on the phenolic profiling of the cosy mutants. […] Because neither 2′-hydroxy-p-coumaroyl-CoA, 6′-caffeoyl-CoA nor 6′-hydroxyferuloyl-CoA were commercially available, the corresponding acids were synthesized and the enzymatic assays were performed in combination with a tobacco 4-COUMARATE:CoA LIGASE (4CL) to catalyze the formation of the corresponding CoA thioesters in situ (Beuerle & Pichersky, 2002). In the samples where 4CL and COSY were added simultaneously, seemingly 100% 2-hydroxy-p-coumaric acid and 6-hydroxyferulic acid were converted into the corresponding coumarins, i.e., umbelliferone and scopoletin. […]

SMILES	substrate converted into the corresponding coumarin (umbelliferone, scopoletin, esculetin)
O=C(O)/C=C/c1cc(O)c(O)cc1O [6-hydroxycaffeic acid]	About 50%
COc1cc(/C=C/C(=O)O)c(O)cc1O [6-hydroxyferulic acid]	~100%
O=C(O)/C=C/c1ccc(O)cc1O [2-hydroxy-p-coumaric acid]	~100%
